Laboratory results reported in US20130089601A1, “METHOD FOR TREATING ATHEROSCLEROSIS” (KAOHSIUNG MEDICAL UNIVERSITY, priority 2009, published 2013).

Tests used:
[1] = tested on: endogenous microRNA-195; assay: Endogenous microRNA-195 in VSMC by quantitative real-time PCR, normalized to U44; format: cell-based, human; conditions: ox-LDL and simvastatin 1 nM for 24 hours
Method: Quantitative real-time PCR was performed in an ABI PRIZM 7500 sequence detection system in triplicates. The typical amplification program was carried out in a 20 μl reaction with a primer at a final concentration of 300 nM and probes of 200 nM. Serial dilutions of the control cDNA for generating standard curves ran in duplicate. Real-time PCR results were analyzed using ABI PRISM 7500 SDS software. Relative differences of microRNAs were quantified using the […] method. For graphical presentation, the 2^−ΔΔCt transformation was used according to the ABI user bulletin version #2. Expression values were depicted relatively to the value at baseline which was the earliest time point present in all the experiments.

[2] = tested on: VSMC cells; assay: Chemotactic migration of VSMC (Transwell); format: cell-based, human; conditions: 100 nM for 24 hours, ox-LDL 40 μg/ml
Method: Chemotactic migration is another characteristic of atherosclerosis and can be used as another line of evidence of atherosclerotic change for the cultured VSMC cells. This experiment was assayed by using a microchemotactic chamber and polycarbonate filters with pores of […] in diameter (Transwell, Millipore). After incubated with microRNA-195 (Pre-miR miRNA, hsa-miR-195 (product ID PM10827), Ambion Inc.) (100 nM) or an inhibitor (100 nM) for 24 hours, the VSMC cells were trypsinized and suspended with a serum free medium. A volume (300 μl) of a 1×10^4 cell suspension was placed in the upper chamber, the medium containing ox-LDL (40 μg/ml, each) was placed in the lower and upper chamber. The cell suspension was incubated at a temperature of 37° C. under 5% CO2 in air for 24 hours. After incubation, the VSMC cells on the upper side of the filter were scraped off, and the cells that had directly migrated to the lower side of the filter were trypsinized. The cells were fixed with methanol and stained with a Giemsa solution (Merck). Quantification of chemotactic migration was performed using the hemocytometer.

Molecule	endogenous microRNA-195 decrease versus ox-LDL-stimulated cells [1] [fold]	chemotactic migration, percentage of migrated cells compared to control medium cells [2] [%]
CCC(C)(C)C(=O)O[C@H]1C[C@@H](C)C=C2C=C[C@H](C)[C@H](CC[C@@H]3C[C@@H](O)CC(=O)O3)[C@H]21 [simvastatin]	> 0.68	–
microRNA-195 inhibitor: 5′-GCCAATATTTCTGTGCTGCTA-3′ (SEQ ID NO: 6), Ambion; used to specifically bind to and inhibit endogenous microRNA-195 (listed as DNA, chemistry not given here) [reference compound]	–	233.7
